Legend:
[1] = Exposure of Form A to different relative humidities, water content by Karl Fischer; type: physicochemical
Procedure: The water content is determined by the Karl Fischer method.
5-[[4-[2-(methyl-2-pyridinylamino)ethoxy]phenyl]methyl]-2,4-thiazolidinedione phosphate hydrate in its polymorphic Form A was exposed to different relative humidities for about 24 hours.

[2] = Stress test at 80° C. in a closed vial, degradation determined by HPLC; type: physicochemical
[3] = comparator rosiglitazone maleate

CN(CCOc1ccc(CC2SC(=O)NC2=O)cc1)c1ccccn1.O=P(O)(O)O (stereo not shown) [Form A, 5-[[4-[2-(methyl-2-pyridinylamino)ethoxy]phenyl]methyl]-2,4-thiazolidinedione phosphate]
Water content (Karl Fisher) ([1]; 45% relative humidity, about 24 hours): 3.42 % w/w
Water content (Karl Fisher) ([1]; 63% relative humidity, about 24 hours): 3.37 % w/w
Water content (Karl Fisher) ([1]; 86% relative humidity, about 24 hours): 3.58 % w/w
Water content (Karl Fisher) ([1]; Initial, before exposure to humidity): 2.8 % w/w
Stability (general statement) [2]: good stability
Degradation after stress test as determined by HPLC ([2]; 80° C., about 160 hours, closed vial): no degradation

CN(CCOc1ccc(CC2SC(=O)NC2=O)cc1)c1ccccn1.O=P(O)(O)O (stereo not shown) [Form E, 5-[[4-[2-(methyl-2-pyridinylamino)ethoxy]phenyl]methyl]-2,4-thiazolidinedione phosphate]
Solubility in water compared to rosiglitazone maleate [3]: comparable or even more expressed
